We go through 1 molecule from patent US20220313626A1, “SMALL MOLECULE INHIBITORS FOR TREATING CANCER IN A SUBJECT HAVING TUMORS WITH HIGH INTERSTITIAL PRESSURE” (GUANGZHOU MAXINOVEL PHARMACEUTICALS CO., LTD., priority 2019, published 2022).

The experiment has as its system 4T1 tumor cells. Nature of the experiment: Anti-tumor efficacy in the subcutaneous 4T1 murine breast cancer model in BALB/c mice. Conditions: 4T1, BALB/c mice; for TGI / Tumor Volume: PO, BID, 20 days. Type of experiment: in vivo. How it is done: Materials required for the experiment: Antibody: mouse PD-1 antibody, Product specifications: 7.09 mg/mL (50 mg/mL), Lot No.: 695318A1 purchased from BioXcell, storage at 4 °C. Experiment animal: 60 BALB/C mice, female, 6˜8 weeks old, 20˜23 g, purchased from Shanghai Lingchang Biotechnology Co, Ltd. Formulation material: castor oil (Cremophor RH40), CAS No.: 61788-85-0, Lot No.: 29761847G0, purchased from Shanghai Xietai Chemical Co. Ltd.; β-cyclodextrin (SBE-β-CD), CAS No.:128446-35-5, Lot No.: 20180110, purchased from Shanghai Shaoyuan Chemical Co. Ltd.; RPMI-1640 culture medium, Art. No.: 1869036, Lot No.:11875-093, purchased from Gibco Co. Ltd.; PBS, Art. No.: SH30256.01, Lot No.: AB10141338, purchased from HyClone Co. Ltd.; Fetal bovine serum: CAS No.: 10099-141, Lot No.: 1966174C, purchased from Gibco Co. Ltd.
Cell preparation and implantation: 4T1 cells (CRL-2539™) were cultured with RPMI 1640 supplemented with 10% heat inactivated FBS at 37° C. in 5% CO2 incubator. Cells were passaged 3 times a week. Cells were harvested, counted and passaged, inoculated when around 70% confluent.
Tumor cell inoculation and group administration: The 50 uL cell suspension containing 1×10^5 4T1 tumor cells (cells suspended in base RPMI-1640 medium) was inoculated into the fourth fat pad of the left abdomen of mice. On the second day after inoculation, according to the order of tumor inoculation, stratified randomization was used to group and start the administration on the day of grouping.
Preparation of test substances: Preparation of formulation: 490 mL of sterile water was added into the volumetric flask with magnetic stirring to have a vortex. 100 g of castor oil (Cremophor RH40) was added with a spoon slowly into the vortex and the solution was kept stirring. 200 g of β-cyclodextrin (SBE-β-CD) was added while the solution was kept stirring until the solution was clear, and the total volume was set to 1000 mL, which contained 10% (w/v) Cremophor RH40+20% (w/v) an aqueous solution of SBE-β-CD.
Preparation of Compound Suspension: 178.88 mg compound was weighed and 14.817 mL 10% (w/v) Cremophor RH40+20% (w/v) SBE-β-CD aqueous solution were added. The suspension solution with a concentration of 12.0 mg/mL was obtained by fully mixing with magnetic stirring. 7.0 mL of the compound suspension solution with concentration of 12.0 mg/mL was pipetted and 7.0 mL aqueous formulation solution was added. The suspension solution with a concentration of 6.0 mg/mL was obtained by fully mixing with magnetic stirring, 7.0 mL of the compound suspension solution with concentration of 6.0 mg/mL was pipetted and 7.0 mL aqueous formulation solution was added. The suspension solution with a concentration of 3.0 mg/mL was obtained by fully mixing with magnetic stirring. 7.0 mL of the compound suspension solution with concentration of 3.0 mg/mL was pipetted and 7.0 mL aqueous formulation solution was added. The suspension solution with a concentration of 1.5 mg/mL was obtained by fully mixing with magnetic stirring. The compound suspension solution was prepared once a day.
Preparation of mPD-1 Antibody: 0.339 mL mPD-L1 antibody (7.09 mg/mL) original solution was pipetted and 2.061 mL PBS solution was added. The solution was fully mixed and the final concentration of 1 mg/mL solution was obtained.
Procedure: The mice in the vehicle group were weighed and recorded in the electronic balance according to their numbers. The mice in the vehicle group were given prepared formulation solution twice a day by oral administration according to their body weight with a capacity of 0.1 mL/10 g. Each mouse spent about 20 seconds and 10 mice in each group shared for about 5 minutes.
The mice in the antibody (10 mg/kg) group were weighed and recorded in the electronic balance according to their numbers. The mice in the antibody group were given prepared antibody solution twice a week by IP administration according to their body weight with a capacity of 0.1 ml/10 g. […]

Structures are written as SMILES.

One may read the TGI as the reduction of tumour growth relative to the control group. Molecule `Cc1c(/C=C/c2cc(CN[C@@](C)(CO)C(=O)O)ccc2C(F)(F)F)cccc1-c1ccccc1` [Compound] had a TGI (15 mg/kg) of 19.96%, a TGI (30 mg/kg) of 33.34%, a TGI (60 mg/kg) of 36.32% and a TGI (120 mg/kg) of 41.55%. In addition, the “Tumor Volume” value is reported as 689.03 ± 43.97 mm^3 (15 mg/kg), 573.9 ± 43.18 mm^3 (30 mg/kg), 548.24 ± 31.39 mm^3 (60 mg/kg) and 503.16 ± 32.93 mm^3 (120 mg/kg). Besides, the minimum effective dose (p<0.05) came out at 30 mpk.
